According to patent US5637586A, “Benzimidazolesulfonamide derivatives and pharmaceutical composition” (Kureha Chemical Industry Co., Ltd., priority 1994, dated 1997):

What was measured:
[1] = system: angiotensin II receptor subtype 1 (AT1); assay: Binding to receptors: inhibition of radioligand (3H-angiotensin II) binding to AT1; details: rabbit adrenal glands, tracer 3H-angiotensin II, displacer DuP753, room temperature
Method: (§1) In this Example, the affinity to the angiotensin II receptor subtype 1 or subtype 2 was evaluated by a binding assay in accordance with the method described in Biochem. Pharmacol., 33, 4057-4062 (1984).
(§2) Specifically, the measurement of the total binding in the presence of each drug was performed as follows:
(§3) A mixture (final volume=0.25 ml) of a drug in a given concentration (the drug was dissolved in dimethylsulfoxide, and diluted to a double volume with a buffer attached to a drug discovery system to prepare a sample for the assay; 0.025 ml), a tracer (0.025 ml), and receptors (0.2 ml) was incubated [in the case of the angiotensin II receptor subtype 1 (AT1), at room temperature for 3 hours, and in the case of the subtype 2 (AT2), at 37° C. for 1 hour]. Then, the reaction mixture was filtered with suction (GF/C filter was used in AT1, and GF/B filter was used in AT2). The filter papers after filtration with suction (the tracer bound to the receptors) were counted by a γ-wellcounter (ARC-500, Aloka). The non-specific bindings were measured by repeating the above method, except that a large excess amount of a displacer was added. The specific binding of the drug in the given concentration was calculated by subtracting the non-specific binding from the total binding, respectively. […]

[2] = system: angiotensin II receptor subtype 2 (AT2); assay: Binding to receptors: inhibition of radioligand (125I-Tyr4-angiotensin II) binding to AT2; details: bovine cerebellar cortex, tracer 125I-Tyr4-angiotensin II, displacer angiotensin II (human), 37° C., 1 hour
Method: as §1, §2, §3

| SMILES | Binding inhibition % in 1 μM, AT1 [1] | Binding inhibition % in 1 μM, AT2 [2] |
| --- | --- | --- |
| CCCCc1nc2ccc(S(=O)(=O)N3CCOCC3)cc2n1Cc1ccc(-c2ccccc2-c2nn[nH]n2)cc1 [Compound No. 1, 4-[[2-n-butyl-1-[2'-[(1H-tetrazol-5-yl)biphenyl-4-yl]methyl]benzimidazol-6-yl]sulfonyl]morpholin] | 100% | 0% |
| CCCCc1nc(Cl)c(CO)n1Cc1ccc(-c2ccccc2-c2nnn[nH]2)cc1 [DuP753, 2-butyl-4-chloro-5-(hydroxymethyl)-1-[[2'-(1H-tetrazol-5-yl)biphenyl-4-yl]methyl]imidazole] | 95% | 0% |
